Reference: paper PMC11754874, “Novel inhibitors of the (VIBVN) NAT protein identified through pharmacophore modeling” (Scientific Reports, 2025)

Target: (VIBVN)NAT (arylamine N-acetyltransferase)
Experiment: DTNB assay of AcCoA-dependent acetylation, absorbance at […] nm
Assay type: biochemical, Vibrio vulnificus

CCCS(=O)(=O)c1c(S(=O)(=O)CCC)c2ccccn2c1C(=O)N/N=C/c1cc(OC)ccc1O [AG-205-36710025]
IC50: 33.3 µM
